Key:
[1] = system: P-glycoprotein (PgP); experiment: P-glycoprotein (PgP) binding using the MTT assay with and without cyclosporin A; assay type: cell-based, rat; parameters: key to % Difference (PgP interaction ranking): NC=No change; conditions: for % Control (Compound + CSA) / % Control (Compound): MTT, H4IIE cells, single exposure concentration (50 μM), 24-hr; for % Control (Compound + CSA): with cyclosporin A; for % Control (Compound): without CSA; for % Difference (PgP interaction ranking): difference in the absence and presence of CSA
Description: For this assay, cells are incubated with and without cyclosporin A (CSA) (a PgP inhibitor) at a single exposure concentration (50 μM) and the difference in toxicity determined with the MTT assay. Compounds with increased toxicity in the presence of CSA have a high probability of binding to PgP proteins. However, compounds of low toxicity will typically not show a difference relative to the addition of CSA, regardless of whether they bind to PgP. At the end of the 24-hr exposure period the culture medium was removed and the remaining attached cells were assayed for their ability to reduce MTT. Viable cells will have the greatest amount of MTT reduction and highest absorbance values. Percent control values were determined by dividing the mean absorbance/fluorescence of the treatment group by the mean absorbance of the control group and multiplying by 100.

[2] = system: rat hepatoma (H4IIE) cell line; experiment: CeeTox membrane toxicity, α-GST leakage ELISA; assay type: cell-based; conditions: H4IIE cells, 24hour; membrane toxicity measured using GST leakage
Description: (§1) All Ceetox assays utilizing the rat hepatoma (H4IIE) cell line as the test system were conducted by CeeTox Inc Kalamazoo, MI. Ceetox assays are described in detail by McKim and Lapchak and according to a Standard Operating Procedure (SOP).
(§2) Rat hepatoma derived H4IIE cells were used as the test system because the cell have a rapid doubling time in culture (i.e. 22 hours). The culture medium used for these cells was Eagles Minimum Essential Medium (MEM) with 10% bovine serum and 10% calf serum (Invitrogen). H4IIE cells were seeded into 96-well plates and allowed to equilibrate for approximately 48 hr before drug assay to allow cells to move into a stable growth phase prior to treatment. Following the equilibration period the cells were exposed to J-147 at concentrations of 1–300 μM. Three to 7 replicates were done for each assay to construct concentration-response curves. Solubility was determined by Nephalometry techniques immediately after dosing and prior to harvesting the cells at 6 or 24 hr. Following the incubation period, cells or their supernatant (culture medium) were analyzed for changes in cell proliferation (cell mass), membrane leakage, mitochondrial function, oxidative stress, and apoptosis. The resultant exposure concentration response curves were graphed and analyzed for determining the concentration that produced a half maximal response or TC50 [28, 30].
The presence of α-Glutathione S-transferase (α-GST), an enzyme leakage marker, was measured in the culture medium using an ELISA assay purchased from Argutus Medical. […] Absorbance values were measured with a Packard SpectraCount™ reader at 450 nm and reference absorbance at 650 nm. Leakage of α-GST from the cell into the culture medium was determined by collecting the culture medium at the end of the exposure period. Thus, the values measured represent total enzyme leakage lost over the exposure period. […] Sample absorbance was read at 570 nm and reference absorbance at 650 nm with a Packard Fusion reader. […]

[3] = system: rat hepatoma (H4IIE) cell line; experiment: CeeTox cellular ATP content, luciferin/luciferase; assay type: cell-based; conditions: H4IIE cells, 24-hr exposure
Description: as §1, §2
Adenosine triphosphate (ATP) content was determined using a modification of a standard luciferin/luciferase luminescence assay based on a reaction between ATP + D-luciferin + oxygen catalyzed by luciferase to yield Oxyluciferin + AMP + PPi + CO2 + light. The emitted light is proportional to the amount of ATP present. […] Plates were analyzed immediately or stored at −20°C until needed. […] ATP was quantified by adding ATP substrate solution and then reading luminescence on a Packard Fusion Luminescence reader. […] Background corrected luminescence was used to determine percent change relative to controls by dividing treated values by control values and multiplying by 100.

[4] = system: rat hepatoma (H4IIE) cell line; experiment: Intracellular glutathione (GSH) levels; assay type: cell-based; conditions: H4IIE cells; for Percent Change in Total GSH: decrease indicated by (−), increase by (+)
Description: as §2
Intracellular glutathione levels were determined as described previously. Briefly, the sulfhydryl group of GSH reacts with DTNB (5,5′-dithio-bis-2-nitrobenzoic acid, Ellman’s reagent) and produces a yellow colored 5-thio-2-nitrobenzoic acid (TNB). The mixed disulfide, GSTNB (between GSH and TNB) that is concomitantly produced, is reduced by glutathione reductase to recycle the GSH and produce more TNB. The rate of TNB production is directly proportional to the concentration of GSH in the sample. Measurement of the absorbance of TNB at 405 or 412 nm provides an accurate estimation of GSH in the sample. At the end of the exposure period, the medium was removed from the cells and metaphosphoric acid (MPA) was added to each well. Plates were then shaken for 5 min at room temperature and stored at −20°C until needed. The sample plates were thawed just prior to analysis and centrifuged at > 2000 × g for 2 min. Sample aliquots were removed and transferred to a clean 96-well plate along with appropriate standard curve controls. Sample pH was neutralized just prior to analysis and each well received an aliquot of PBS reaction buffer containing Ellman’s reagent, NADPH, and glutathione reductase. The plates were shaken for 15–30 min at room temperature and glutathione content was determined colorimetrically with a Packard Fusion reader at 415 nm. The assay is based on the concept that all GSH is oxidized to GSSG by DTNB reagent. Two molecules of GSH are required to make one molecule of GSSG (oxidized glutathione). Total GSH was determined by reducing GSSG to 2GSH with glutathione reductase. A standard curve was prepared with oxidized glutathione (GSSG) over a range of concentrations. These concentrations are then converted to glutathione equivalents (GSX) essentially by multiplying the GSSG standard concentrations by 2. The amount of GSX expressed as pmoles/well was determined using the standard curve and regression analysis and are expressed as percent of control;

| Compound | % Control (Compound + CSA) [1] [%] | % Control (Compound) [1] [%] | % Difference (PgP interaction ranking) [1] | Mem Tox TC50 [2] [µM] | ATP TC50 [3] [µM] | Total GSH TC50 [4] [µM] | Percent Change in Total GSH [4] [%] | Interaction with Permeability-glycoprotein ([1]; cells incubated with and without CSA, 50 μM) |
| --- | --- | --- | --- | --- | --- | --- | --- | --- |
| C=C(C)[C@H]1Cc2c(ccc3c2O[C@@H]2COc4cc(OC)c(OC)cc4[C@@H]2C3=O)O1 [Rotenone, rotenone] | 86.1 | 80.5 | NC | 0.93 | 0.05 | 0.3 | −100.0 | – |
| COc1cccc(/C=N/N(C(=O)C(F)(F)F)c2ccc(C)cc2C)c1 [J-147, (E)-N-(2,4-Dimethylphenyl)-2,2,2-trifluoro-N′-(3-methoxybenzylidene) acetohydrazide] | 92.1 | 93.7 | NC | >300 | 210 | 217 | −84.9 | low interaction |
| CC[C@@]1(O)C(=O)OCc2c1cc1n(c2=O)Cc2cc3ccccc3nc2-1 [Camptothecin, camptothecin] | 85.3 | 76.6 | NC | >300 | 0.3 | 3.9 | −64.5 | – |

— article PMC4215638, “J-147 a Novel Hydrazide Lead Compound to Treat Neurodegeneration: CeeTox™ Safety and Genotoxicity Analysis” (Journal of neurology & neurophysiology, 2013)
